Measurements from patent US20100234766A1, “Topical administration of a salt compound to facilitate venipuncture” (priority 2006, published 2010).

Tests used:
vein of the inner elbow = experiment: Vein diameter from visible light images after swabbing, arm stationary (Examples 3 and 4); conditions: for AVERAGE % CHANGE IN VEIN DIAMETER: nine minutes following application; for Diameter Post-Application / Diameter Pre-Application / Percent change (vein diameter): Example 3; for Diameter Post-Application: endpoint image nine minutes following application, concentration as in test agent label; for Diameter Pre-Application: initial image prior to application of test agent (baseline); for Percent change (vein diameter): nine minutes following application versus pre-application; for vasodilation of the vein of the elbow (in words): summary of Table 4, salts at 10 mM;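 for all read-outs here: agents applied to skin over the inner elbow vein with the arm resting still on a table, diameter read in pixels from images taken before and nine minutes after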
Description: Studies in Example 2 were performed except that the vein of the inner elbow, the site most frequently used for phlebotomy, was evaluated and vein diameter was measured from enlarged, sequential, visible light images. […] Instead the response to swabbing was recorded with the arm in a stationary position resting on a table top.
The initial image was taken prior to application of each test agent. The endpoint image was taken nine minutes following application of the test agent. The vein diameters were measured in pixels.
The procedure of Example 3 was repeated utilizing swabs impregnated with various salt compounds on one to three adult male and female subjects. Each test compound was applied to the skin overlying the vein of the inner elbow. The initial image was taken prior to application of each test agent. The endpoint image was taken nine minutes following application of the test agent. The vein diameters were measured in pixels.

[1] = test system: veins visible on the dorsum of the hand; experiment: Peripheral venous filling time after topical application (Example 1); type: in vivo, human; conditions: for VENOUS FILL TIME: average of two subjects; for effect on venous fill time (in words): topical application, dorsum of hand, summary of Table 1
Description: Several studies were conducted to determine the effect of topically applied compounds on peripheral venous filling. The same two healthy adult male volunteer subjects were used for each of the studies.
In each study, a baseline value for peripheral venous filling time was determined as follows. Each subject held their outstretched arm vertically with hand directed upwards toward the ceiling for a period of time sufficient to cause the veins visible on the dorsum of the hand to attain their minimum dilation. Then, the subject lowered their hand and held their outstretched arm vertically with hand directed downwards toward the floor for a period of time sufficient to cause the veins visible on the dorsum of the hand to attain their maximum dilation. The time for the veins to attain maximum dilation following the lowering of the hands was measured.
This procedure was repeated following application of a test compound to the site of visible veins on the dorsum of the hands in order to determine the effect of the test compound on venous filling. Longer venous filling times are indicative of vasodilation and increased pooling of blood within the vein.

dorsal hand veins = experiment: Infrared thermal imaging of dorsal hand veins after swabbing and hand elevation (Example 2); type: in vivo, human
Description: Infrared (IR) thermal imaging utilizing a standardized, calibrated infrared (950 nm wavelength) camera acquiring electronic images and providing color coded maps for testing effects of test vasodilator chemical compounds on dorsal hand veins was performed in three male and two female healthy volunteers. Infrared was utilized to determine the degree to which the test chemical compounds cause vasodilation because infrared provides a measure of thermal gradient and diameter that correlates well with visual indications of increased venous size and with successful first attempt venipuncture. Test agents were applied by swabbing the target area for about 30 seconds. A baseline control without application of any swab or by swabbing with a placebo swab containing no liquid was performed at the start of each test as a basis to compare imaging of the vein dilator dependent filling. IR images were obtained using a standardized, calibrated infrared (950 nm wavelength) camera that acquired an electronic image and provided a color coded thermal map. […] The swab was rubbed onto the dorsal surface of a hand of each subject and then the hand was elevated for 2 minutes after which the hand was returned to a horizontal position. IR imaging was performed on the dorsum of the hand before elevation and at intervals following the return to the horizontal position.

[2] = Example 4, 10 mM, one to three subjects
[3] = Study 1, baseline (none) 54 sec, EtOH 70%, MgCl2 100 mM
[4] = Study 3, baseline (none) 51 sec, EtOH 70%, MgSO4 10 mM
[5] = Study 4, baseline (none) 39 sec, MgSO4 10 mM

For `CC(=O)[O-].CC(=O)[O-].[Mg+2]` [10 mM Mg acetate, Mg acetate], the “AVERAGE % CHANGE IN VEIN DIAMETER” value (vein of the inner elbow; [2]) was 27.9%.

For `CCO` [EtOH, ethyl alcohol], the “VENOUS FILL TIME” value [1, 3] was 59 s, the “% CHANGE FROM BASELINE (venous fill time)” value (shortened to “% CHANGE FROM BASELINE”) [1, 3] was 9% and the “VENOUS FILL TIME” value [1, 4] was 38 s. The “% CHANGE FROM BASELINE” value [1, 4] was “(−25) %”, the “decrease in fill time” value ([1]; study 3, EtOH 70%, versus baseline) was 25% and the “effect on venous fill time (in words)” value [1] was “no effect on venous fill time”.

“benzalkonium chloride [1% benzalkonium chloride, reference compound]” was tested, and the “Diameter Post-Application” value (vein of the inner elbow) was 37.80 pixels, the “Diameter Pre-Application” value (vein of the inner elbow) was 34.41 pixels and the “Percent change (vein diameter)” value (vein of the inner elbow) was 9.85%.

In the case of `[Ca+2].[Cl-].[Cl-]` [10 mM CaCl2, CaCl2], the “AVERAGE % CHANGE IN VEIN DIAMETER” value (vein of the inner elbow; [2]) was 12.0%.

For `O=S(=O)([O-])[O-].[Zn+2]` [10 mM ZnSO4, ZnSO4], the “AVERAGE % CHANGE IN VEIN DIAMETER” value (vein of the inner elbow; [2]) was −4.4% and the “vasodilation of the vein of the elbow (in words)” value (from here on “vasodilation”) (vein of the inner elbow; Example 4) was “failed to demonstrate vasodilation”.

`O=S(=O)([O-])[O-].[Mg+2]` [MgSO4, magnesium sulfate] was tested, and the “Increase in Venous Diameter Following Hand Elevation” value (dorsal hand veins; MgSO4 10 mM in water, benzalkonium chloride 1%, maximal dilation after return to horizontal, control (dry swab) <10%) was 30%, the “Diameter Post-Application” value (vein of the inner elbow) was 73.06 pixels and the “Diameter Pre-Application” value (vein of the inner elbow) was 65.86 pixels. For the same compound, the “Percent change (vein diameter)” value (vein of the inner elbow) was 10.93%, the “AVERAGE % CHANGE IN VEIN DIAMETER” value (vein of the inner elbow; [2]) was 30.0% and the “AVERAGE % CHANGE IN VEIN DIAMETER” value (vein of the inner elbow; Example 4, 100 mM) was 25.2%. For the same compound, the “AVERAGE % CHANGE IN VEIN DIAMETER” value (vein of the inner elbow; Example 4, 1 M) was 22.9%, the optimal concentration (vein of the inner elbow; Example 4, from 10 mM, 100 mM and 1 M tested) was 10 mM and the “vasodilation” value (vein of the inner elbow; Example 4) was “powerful vasodilator”. For the same compound, the “effect on venous fill time (in words)” value [1] was “substantial increases in venous filling time compared to baseline control”.

With `CC(=O)[O-].CC(=O)[O-].[Mn+2]` [10 mM Mn acetate, Mn acetate] the “AVERAGE % CHANGE IN VEIN DIAMETER” value (vein of the inner elbow; [2]) was 0.0%.

In the case of `CC(=O)[O-].CC(=O)[O-].[Ca+2]` [10 mM Ca acetate, Ca acetate], the “AVERAGE % CHANGE IN VEIN DIAMETER” value (vein of the inner elbow; [2]) was −0.5% and the “vasodilation” value (vein of the inner elbow; Example 4) was “did not show vasodilation”.

In the case of `[Cl-].[Cl-].[Sr+2]` [10 mM SrCl2, SrCl2], the “AVERAGE % CHANGE IN VEIN DIAMETER” value (vein of the inner elbow; [2]) was −6.0% and the “vasodilation” value (vein of the inner elbow; Example 4) was “did not show vasodilation”.

With `O=S(=O)([O-])[O-].[Cu+2]` [10 mM CuSO4, CuSO4] the “AVERAGE % CHANGE IN VEIN DIAMETER” value (vein of the inner elbow; [2]) was 20.95%.

For `O=S(=O)([O-])[O-].[Mn+2]` [10 mM MnSO4, MnSO4], the “AVERAGE % CHANGE IN VEIN DIAMETER” value (vein of the inner elbow; [2]) was 0.0%.

For `O=C([O-])CC(O)(CC(=O)[O-])C(=O)[O-].O=C([O-])CC(O)(CC(=O)[O-])C(=O)[O-].[Mg+2].[Mg+2].[Mg+2]` [10 mM Mg citrate, Mg citrate], the “AVERAGE % CHANGE IN VEIN DIAMETER” value (vein of the inner elbow; [2]) was 4.2%.

With `O=S(=O)([O-])[O-].[Ca+2]` [10 mM CaSO4, CaSO4] the “AVERAGE % CHANGE IN VEIN DIAMETER” value (vein of the inner elbow; [2]) was 17.7%.

For `CC(C)O` [Isopropyl alcohol, isopropyl alcohol, reference compound], the “effect on dorsal hand veins on IR examination (in words), early” value (dorsal hand veins; Example 2a, compared to dry swab control, 30 seconds following return to horizontal, 70% isopropyl alcohol) was “initial vasoconstriction with reduced filling of the veins on the dorsum of the hand”, the “Diameter Post-Application” value (vein of the inner elbow) was 55.04 pixels and the “Diameter Pre-Application” value (vein of the inner elbow) was 57.78 pixels. The “Percent change (vein diameter)” value (vein of the inner elbow) was “(−4.74) Percent”, the “AVERAGE % CHANGE IN VEIN DIAMETER” value (vein of the inner elbow; Example 4, 70%) was −13.2% and the “vasodilation” value (vein of the inner elbow; Example 4) was “constriction of the underlying vein”. For the same compound, the “VENOUS FILL TIME” value [1, 5] was 69 s, the “% CHANGE FROM BASELINE” value [1, 5] was 76% and the “effect on venous fill time (in words)” value [1] was “increased venous fill time”.

With `[Cl][Mn][Cl]` [10 mM MnCl2, MnCl2] the “AVERAGE % CHANGE IN VEIN DIAMETER” value (vein of the inner elbow; [2]) was 2.7% and the “vasodilation” value (vein of the inner elbow; Example 4) was “mild vasodilation”.

For `CC(=O)[O-].CC(=O)[O-].[Sr+2]` [10 mM Sr acetate, Sr acetate], the “AVERAGE % CHANGE IN VEIN DIAMETER” value (vein of the inner elbow; [2]) was 7.35%.

`[Cl-].[Cl-].[Mg+2]` [MgCl2] was tested, and the “AVERAGE % CHANGE IN VEIN DIAMETER” value (vein of the inner elbow; [2]) was 6.5%, the “VENOUS FILL TIME” value [1, 3] was 158 s and the “% CHANGE FROM BASELINE” value [1, 3] was 190%. For the same compound, the “effect on venous fill time (in words)” value [1] was “substantial increases in venous filling time compared to baseline control”.

With `O=S(=O)([O-])[O-].[Sr+2]` [10 mM SrSO4, SrSO4] the “AVERAGE % CHANGE IN VEIN DIAMETER” value (vein of the inner elbow; [2]) was 16.95%.

With `[Cl][Cu][Cl]` [10 mM CuCl2, CuCl2] the “AVERAGE % CHANGE IN VEIN DIAMETER” value (vein of the inner elbow; [2]) was 10.5%.
